Experimental findings from US20240279202A1 (NURIX THERAPEUTICS, INC., priority 2021, published 2024) are described below.

For orientation: DC50 means the concentration giving 50% degradation. Read a high DC50 as a less potent degrader. In general, Dmax refers to the largest share of the target that was removed.

This experiment has as its target T1, ITK (Homo sapiens, UniProt Q08881).
T1 sequence (Q08881 1-620): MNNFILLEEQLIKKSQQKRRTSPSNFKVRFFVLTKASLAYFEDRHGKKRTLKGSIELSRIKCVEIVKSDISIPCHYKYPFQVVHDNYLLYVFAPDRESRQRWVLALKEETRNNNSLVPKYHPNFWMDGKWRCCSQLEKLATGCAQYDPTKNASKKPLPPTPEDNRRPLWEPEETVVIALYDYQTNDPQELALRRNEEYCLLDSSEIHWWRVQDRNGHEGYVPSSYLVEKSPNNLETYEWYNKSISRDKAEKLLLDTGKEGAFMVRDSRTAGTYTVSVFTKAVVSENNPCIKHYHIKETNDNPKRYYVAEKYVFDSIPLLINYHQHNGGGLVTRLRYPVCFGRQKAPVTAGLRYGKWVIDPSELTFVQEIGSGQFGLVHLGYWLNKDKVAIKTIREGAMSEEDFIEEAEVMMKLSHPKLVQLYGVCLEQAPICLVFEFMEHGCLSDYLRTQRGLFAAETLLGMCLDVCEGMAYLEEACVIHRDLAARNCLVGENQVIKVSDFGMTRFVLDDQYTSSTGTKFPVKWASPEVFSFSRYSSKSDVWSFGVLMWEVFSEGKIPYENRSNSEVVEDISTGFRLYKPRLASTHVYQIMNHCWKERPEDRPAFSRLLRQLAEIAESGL
Briefly: ITK degradation HiBiT assay. Also noted: expressed in transfected cells; host or cells: Molt4 (ATCC CRL-1552), monoclonal clone 1C10, engineered to carry the HiBiT tag. It counts as cell-based. As to conditions: 4 hrs; for Dmax: MOLT-4, C-terminal HiBiT-tagged Molt4 cells. The essentials:
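C-terminal HiBiT-tagged Molt4 cells (clone 1C10) treated 4 h at 32° C with an 11-point, 5-fold compound dilution series (0.5% DMSO). HiBiT lytic detection with LgBiT then luminescence read; % ITK remaining versus concentration fit by four-parameter variable-slope model to give DC50 and Dmax.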

Where [1] appears, read: C-terminal HiBiT-tagged Molt4 cells.

Molecules are shown by their SMILES.

Molecule `Cn1c(=O)n(C2CCC(=O)NC2=O)c2cccc(N3CCC(C(=O)N4CC(n5cc(NC(=O)c6n[nH]c7c6C[C@@H]6C(F)(F)[C@]6(C)C7)cn5)C4)CC3)c21` (stereo partly drawn) [Compound 56, (4aS,5aR)-N-(1-(1-(1-(1-(2,6-dioxopiperidin-3-yl)-3-methyl-2-oxo-2,3-dihydro-1H-benzo[d]imidazol-4-yl)piperidine-4-carbonyl)azetidin-3-yl)-1H-pyrazol-4-yl)-5,5-difluoro-5a-methyl-1,4,4a,5,5a,6-hexahydrocyclopropa[f]indazole-3-carboxamide] registered a Dmax of 64%. Under setting [1], this molecule showed a DC50 of 0.013 nM.

Regarding `C[C@@]12Cc3[nH]nc(C(=O)Nc4cnn([C@@H]5CCN(C[C@@H]6CCN(c7ccc(C8CCC(=O)NC8=O)cc7)C6)C[C@H]5F)c4)c3C[C@@H]1C2(F)F` (stereo partly drawn) [Compound 101, (4aS,5aR)-N-(1-((3R,4R)-1-(((3S)-1-(4-(2,6-dioxopiperidin-3-yl)phenyl)pyrrolidin-3-yl)methyl)-3-fluoropiperidin-4-yl)-1H-pyrazol-4-yl)-5,5-difluoro-5a-methyl-1,4,4a,5,5a,6-hexahydrocyclopropa[f]indazole-3-carboxamide], the Dmax is 87%. This molecule registered a DC50 under setting [1] of 1.1 nM.

On to `C[C@@]12Cc3[nH]nc(C(=O)Nc4cnn(C5CCN(CC6CCN(c7ccc([C@@H]8CCC(=O)NC8=O)cc7)CC6)CC5)c4)c3C[C@@H]1C2(F)F` [Compound 116, (4aS,5aR)-N-(1-{1-[(1-{4-[(3S)-2,6-dioxopiperidin-3-yl]phenyl}piperidin-4-yl)methyl]piperidin-4-yl}-1H-pyrazol-4-yl)-5,5-difluoro-5a-methyl-1H,4H,4aH,5H,5aH,6H-cyclopropa[f]indazole-3-carboxamide], for which, under setting [1], it took 0.9 nM to reach half-maximal degradation (DC50) and the “HiBiT DMax (%)” value turned out to be 89%.

In turn, `C[C@@]12Cc3[nH]nc(C(=O)Nc4ccc(C5CCN(CC6CCN(c7ccc(C8CCC(=O)NC8=O)cn7)CC6)CC5)nc4)c3C[C@@H]1C2(F)F` (stereo partly drawn) [Compound 111, (4aS,5aR)-N-(6-(1-((1-(5-(2,6-dioxopiperidin-3-yl)pyridin-2-yl)piperidin-4-yl)methyl)piperidin-4-yl)pyridin-3-yl)-5,5-difluoro-5a-methyl-1,4,4a,5,5a,6-hexahydrocyclopropa[f]indazole-3-carboxamide] gave a Dmax of 90%. Further, the DC50 under setting [1] worked out at 1.2 nM.

In the case of `C[C@@]12Cc3[nH]nc(-c4cc5cc(C(=O)N6CCN(C[C@@H]7CCN(c8ccc(C9CCC(=O)NC9=O)cc8)C7)CC6)ccc5[nH]4)c3C[C@@H]1C2(F)F` (stereo partly shown) [Compound 143], the Dmax is 81%.

Turning to `C[C@@H]1CN(c2ccc(C3CCC(=O)NC3=O)cn2)CCN1CC1CCN(C(=O)c2ccc3cc(-c4n[nH]c5c4CCC(C)(C)C5)[nH]c3c2)CC1` (stereo partly shown) [Compound 189], the Dmax came out at 84%.

On to `C[C@@]12Cc3[nH]nc(C(=O)Nc4cnn(C5CN(C(=O)C6CN(c7ccc(C8CCC(=O)NC8=O)cn7)C6)C5)c4)c3C[C@@H]1C2(F)F` (stereo partly drawn) [Compound 55, (4aS,5aR)-N-(1-(1-(1-(5-(2,6-dioxopiperidin-3-yl)pyridin-2-yl)azetidine-3-carbonyl)azetidin-3-yl)-1H-pyrazol-4-yl)-5,5-difluoro-5a-methyl-1,4,4a,5,5a,6-hexahydrocyclopropa[f]indazole-3-carboxamide], for which it took 1.8 nM to reach half-maximal degradation under setting [1] (DC50).

On to `C[C@@H]1CN(C(=O)c2ccc3cc(-c4n[nH]c5c4CCC(C)(C)C5)[nH]c3c2)CCN1CC1CCN(c2ccc(C3CCC(=O)NC3=O)cn2)CC1` (stereo partly drawn) [Compound 129, 3-(6-(4-(((R)-4-(2-(6,6-dimethyl-4,5,6,7-tetrahydro-1H-indazol-3-yl)-1H-indole-6-carbonyl)-2-methylpiperazin-1-yl)methyl)piperidin-1-yl)pyridin-3-yl)piperidine-2,6-dione], for which the Dmax came to 81%. The molecule also came in with a DC50 under setting [1] of 4.9 nM.

`CC1(C)CCc2c(-c3cc4ccc(C(=O)N5CCN(CC6CCN(c7ncc(C8CCC(=O)NC8=O)cc7F)CC6)CC5)cc4[nH]3)n[nH]c2C1` (stereo not shown) [Compound 183] gave a Dmax of 81%.

`CC1(C)CCc2c(-c3cc4ccc(N5CCC6(CCN(Cc7ccc8c(c7)C(=O)N(C7CCC(=O)NC7=O)C8=O)CC6)C5=O)cc4[nH]3)n[nH]c2C1` (stereo not shown) [Compound 8, 5-((2-(2-(6,6-dimethyl-4,5,6,7-tetrahydro-1H-indazol-3-yl)-1H-indol-6-yl)-1-oxo-2,8-diazaspiro[4.5]decan-8-yl)methyl)-2-(2,6-dioxopiperidin-3-yl)isoindoline-1,3-dione]: the Dmax stood at 92%. Moreover, under setting [1], the DC50 amounted to 7.8 nM.

`CN(C(=O)CN1CC2(CCN(c3ccc4c(c3)C(=O)N(C3CCC(=O)NC3=O)C4=O)C2)C1)c1ccc2cc(-c3n[nH]c4c3C[C@@H]3C(F)(F)[C@]3(C)C4)[nH]c2c1` (stereo partly shown) [Compound 71] gave a Dmax of 70%. The molecule further showed a DC50 under setting [1] of 5.2 nM.

On to `CC1(C)CCc2c(-c3cc4ccc(C(=O)N5CCN(CCC6CCN(c7cc(C8CCC(=O)NC8=O)ccn7)CC6)CC5)cc4[nH]3)n[nH]c2C1` (stereo not shown) [Compound 186], for which the Dmax was determined as 87%.

Turning to `CC1(C)CCc2c(-c3cc4ccc(C(=O)N5CCC(CN6CCCc7cc(C8CCC(=O)NC8=O)ccc76)CC5)cc4[nH]3)n[nH]c2C1` (stereo not shown) [Compound 199], the Dmax amounted to 52%.

For `C[C@@]12Cc3[nH]nc(C(=O)Nc4cnn(C5CCN(CC6CCN(c7ccc(C8CCC(=O)NC8=O)cc7F)CC6)CC5)c4)c3C[C@@H]1C2(F)F` (mixture of isomers) [Compound 112, (4aS,5aR)-N-(1-{1-[(1-{4-[(3RS)-2,6-dioxopiperidin-3-yl]-2-fluorophenyl}piperidin-4-yl)methyl]piperidin-4-yl}-1H-pyrazol-4-yl)-5,5-difluoro-5a-methyl-1H,4H,4aH,5H,5aH,6H-cyclopropa[f]indazole-3-carboxamide], the Dmax came to 87%. Under setting [1], this molecule returned a DC50 of 0.14 nM.

In turn, `C[C@@]12Cc3[nH]nc(C(=O)Nc4ccc(C5CCN(CC6CCN(c7ccc(C8CCC(=O)NC8=O)cn7)CC6)CC5)cc4)c3C[C@@H]1C2(F)F` (stereo partly drawn) [Compound 109, (4aS,5aR)-N-(4-(1-((1-(5-(2,6-dioxopiperidin-3-yl)pyridin-2-yl)piperidin-4-yl)methyl)piperidin-4-yl)phenyl)-5,5-difluoro-5a-methyl-1,4,4a,5,5a,6-hexahydrocyclopropa[f]indazole-3-carboxamide] showed a Dmax of 91%. Under setting [1], this molecule registered a DC50 of 0.73 nM.

In turn, `C[C@H]1CN(C(=O)c2ccc3cc(-c4n[nH]c5c4C[C@@H]4C(F)(F)[C@]4(C)C5)[nH]c3c2)CCN1CC1CCN(c2ccc(C3CCC(=O)NC3=O)cc2F)CC1` (mixture of isomers) [Compound 155] showed a Dmax of 84%.

In the case of `Cc1nc(N2CCC(CN3CCN(C(=O)c4ccc5cc(-c6n[nH]c7c6CCC(C)(C)C7)[nH]c5c4)CC3)CC2)ccc1C1CCC(=O)NC1=O` (stereo not shown) [Compound 181], the Dmax stood at 61%.

Consider `C[C@@]12Cc3[nH]nc(C(=O)Nc4ccc(C5CCN(CC6CCN(c7ccc(C8CCC(=O)NC8=O)cc7)CC6)CC5)nc4)c3C[C@@H]1C2(F)F` (stereo partly drawn) [Compound 110, (4aS,5aR)-N-(6-(1-((1-(4-(2,6-dioxopiperidin-3-yl)phenyl)piperidin-4-yl)methyl)piperidin-4-yl)pyridin-3-yl)-5,5-difluoro-5a-methyl-1,4,4a,5,5a,6-hexahydrocyclopropa[f]indazole-3-carboxamide], for which the Dmax came to 88%. In addition, the DC50 under setting [1] is 1.7 nM.

`C[C@@]12Cc3[nH]nc(C(=O)Nc4cnn(C5CCN(CC6CCN(c7ccc([C@H]8CCC(=O)NC8=O)cc7F)CC6)CC5)c4)c3C[C@@H]1C2(F)F` [Compound 118, (4aS,5aR)-N-(1-{1-[(1-{4-[(3R)-2,6-dioxopiperidin-3-yl]-2-fluorophenyl}piperidin-4-yl)methyl]piperidin-4-yl}-1H-pyrazol-4-yl)-5,5-difluoro-5a-methyl-1H,4H,4aH,5H,5aH,6H-cyclopropa[f]indazole-3-carboxamide] showed a Dmax of 77%. Moreover, the DC50 under setting [1] amounted to 0.467 nM.

`C[C@@]12Cc3[nH]nc(C(=O)Nc4cnn(C5CCN(CC6CCN(c7ccc(C8CCC(=O)NC8=O)cc7)CC6)CC5)c4)c3C[C@@H]1C2(F)F` (stereo partly drawn) [Compound 92, (4aS,5aR)-N-(1-(1-((1-(4-(2,6-dioxopiperidin-3-yl)phenyl)piperidin-4-yl)methyl)piperidin-4-yl)-1H-pyrazol-4-yl)-5,5-difluoro-5a-methyl-1,4,4a,5,5a,6-hexahydrocyclopropa[f]indazole-3-carboxamide]: the Dmax turned out to be 89%. Under setting [1], the DC50 was under 0.01 nM.

In turn, `CC1(C)CCc2c(-c3cc4ccc(C(=O)N5CCN(CC6CCN(c7ccc8c(c7)CN(C7CCC(=O)NC7=O)C8=O)CC6)CC5)cc4[nH]3)n[nH]c2C1` (stereo not shown) [Compound 26, 3-{5-[4-({4-[2-(6,6-dimethyl-1,4,5,7-tetrahydroindazol-3-yl)-1H-indole-6-carbonyl]piperazin-1-yl}methyl)piperidin-1-yl]-1-oxo-3H-isoindol-2-yl}piperidine-2,6-dione] displayed a Dmax of 88%. The molecule further gave a DC50 under setting [1] of under 0.01 nM.
